The pIC50 is the IC50 on a negative log10 scale, so that one unit is a factor of ten.

Structures are written as SMILES. pIC50: −log10 of the molar value.

Data set [1] deals with T1, CYP1A2 (Homo sapiens, UniProt P05177).
T1 sequence (P05177 1-516): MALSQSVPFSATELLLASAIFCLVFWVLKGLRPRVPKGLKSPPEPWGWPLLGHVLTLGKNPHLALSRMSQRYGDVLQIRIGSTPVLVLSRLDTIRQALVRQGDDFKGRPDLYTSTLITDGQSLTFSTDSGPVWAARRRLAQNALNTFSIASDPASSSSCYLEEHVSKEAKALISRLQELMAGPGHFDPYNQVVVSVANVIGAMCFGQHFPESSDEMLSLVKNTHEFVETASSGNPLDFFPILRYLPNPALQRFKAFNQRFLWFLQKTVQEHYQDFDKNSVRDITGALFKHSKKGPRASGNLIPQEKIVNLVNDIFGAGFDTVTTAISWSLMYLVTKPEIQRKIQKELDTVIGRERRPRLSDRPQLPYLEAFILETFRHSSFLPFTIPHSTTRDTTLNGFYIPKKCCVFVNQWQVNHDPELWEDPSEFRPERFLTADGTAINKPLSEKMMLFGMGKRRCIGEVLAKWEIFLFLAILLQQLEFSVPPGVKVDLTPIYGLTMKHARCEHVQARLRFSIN
The format is in vitro ADME.

Another data set addresses CYP2D6 (Homo sapiens, UniProt P10635). Briefly: In vitro P450 inhibition, recombinant CYP2D6. The format is in vitro ADME.
Another data set addresses T2, OATP1B3 (Homo sapiens, UniProt Q9NPD5).
T2 sequence (Q9NPD5 1-702): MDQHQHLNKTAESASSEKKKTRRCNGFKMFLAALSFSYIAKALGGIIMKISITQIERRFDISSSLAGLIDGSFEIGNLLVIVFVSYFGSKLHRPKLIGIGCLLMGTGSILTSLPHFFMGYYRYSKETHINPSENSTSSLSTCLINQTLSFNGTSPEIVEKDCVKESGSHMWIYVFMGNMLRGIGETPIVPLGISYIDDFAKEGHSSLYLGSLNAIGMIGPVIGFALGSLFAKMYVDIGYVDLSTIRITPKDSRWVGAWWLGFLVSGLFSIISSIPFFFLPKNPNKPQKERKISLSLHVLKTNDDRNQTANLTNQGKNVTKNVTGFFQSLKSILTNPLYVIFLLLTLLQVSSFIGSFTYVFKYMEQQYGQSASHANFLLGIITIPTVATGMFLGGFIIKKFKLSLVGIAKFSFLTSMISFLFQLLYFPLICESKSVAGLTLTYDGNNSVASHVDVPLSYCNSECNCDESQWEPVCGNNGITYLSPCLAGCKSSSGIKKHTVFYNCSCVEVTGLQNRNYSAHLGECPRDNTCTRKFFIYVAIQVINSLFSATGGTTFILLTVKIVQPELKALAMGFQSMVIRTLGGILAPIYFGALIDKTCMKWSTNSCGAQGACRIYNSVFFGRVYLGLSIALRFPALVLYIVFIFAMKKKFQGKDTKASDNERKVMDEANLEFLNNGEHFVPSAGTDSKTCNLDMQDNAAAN
Nature of the data set: OATP1B3 uptake inhibition assay. Particulars: at 40 µM. The format is in vitro ADME.

In the next data set the target is T3, OCT2 (Homo sapiens, UniProt O15244).
T3 sequence (O15244 1-555): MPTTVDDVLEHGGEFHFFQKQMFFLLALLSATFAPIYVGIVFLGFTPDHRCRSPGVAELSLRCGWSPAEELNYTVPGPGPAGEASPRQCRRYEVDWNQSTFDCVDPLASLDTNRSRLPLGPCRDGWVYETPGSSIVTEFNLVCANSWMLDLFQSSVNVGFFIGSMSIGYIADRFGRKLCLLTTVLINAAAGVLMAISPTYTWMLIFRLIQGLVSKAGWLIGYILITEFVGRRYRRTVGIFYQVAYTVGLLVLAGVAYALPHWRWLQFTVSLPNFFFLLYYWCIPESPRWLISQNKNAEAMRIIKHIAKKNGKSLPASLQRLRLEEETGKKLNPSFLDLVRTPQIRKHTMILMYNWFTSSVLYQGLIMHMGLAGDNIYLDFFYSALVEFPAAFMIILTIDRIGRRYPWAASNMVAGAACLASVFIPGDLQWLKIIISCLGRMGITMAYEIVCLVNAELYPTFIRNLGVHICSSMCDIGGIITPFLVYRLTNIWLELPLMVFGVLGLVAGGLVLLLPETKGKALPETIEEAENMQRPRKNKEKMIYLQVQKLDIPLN
Nature of the data set: OCT2 uptake inhibition assay. The format is in vitro ADME. Particulars: 0.63–40 μM.

In another data set the target is T4, OATP1B1 (Homo sapiens, UniProt Q9Y6L6).
T4 sequence (Q9Y6L6 1-691): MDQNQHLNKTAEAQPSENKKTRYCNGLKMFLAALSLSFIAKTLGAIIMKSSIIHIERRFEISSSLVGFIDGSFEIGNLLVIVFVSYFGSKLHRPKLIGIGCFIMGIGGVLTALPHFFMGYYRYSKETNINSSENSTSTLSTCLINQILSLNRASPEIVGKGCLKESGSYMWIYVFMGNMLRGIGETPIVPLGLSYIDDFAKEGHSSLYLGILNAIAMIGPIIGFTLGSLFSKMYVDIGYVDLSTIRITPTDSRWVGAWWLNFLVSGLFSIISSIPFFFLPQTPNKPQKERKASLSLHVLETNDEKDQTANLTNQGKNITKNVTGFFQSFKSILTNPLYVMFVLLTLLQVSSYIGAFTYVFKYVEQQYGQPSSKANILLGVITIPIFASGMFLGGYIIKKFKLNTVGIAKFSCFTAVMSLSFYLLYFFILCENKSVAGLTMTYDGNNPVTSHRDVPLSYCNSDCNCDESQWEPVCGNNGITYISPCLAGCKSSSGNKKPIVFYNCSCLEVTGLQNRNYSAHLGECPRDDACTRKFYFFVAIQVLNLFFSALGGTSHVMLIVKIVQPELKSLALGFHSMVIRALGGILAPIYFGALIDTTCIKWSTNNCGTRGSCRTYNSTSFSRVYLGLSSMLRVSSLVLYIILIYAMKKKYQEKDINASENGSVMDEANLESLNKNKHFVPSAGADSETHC
Nature of the data set: OATP1B1 uptake substrate assay. The format is in vitro ADME.

A short description of data set [2]: Phase 1 clinical drug–drug interaction study, plasma pharmacokinetics. The format is in vivo, human.
For data set [3], the system named is CYP1A2. Particulars: ocedurenone at 0.1, 1, or 10 μM, 72 h; inducer criterion 40%.
The conditions of data set [4]: 0.5 to 30 mg administered orally; cited from earlier work.
Where [5] appears, read: ocedurenone + itraconazole (test) vs ocedurenone alone (reference), Cohort 1.
[6] abbreviates: ocedurenone + rifampin (test) vs ocedurenone alone (reference), Cohort 2.

CYP2D6, sequence (P10635 whole entry): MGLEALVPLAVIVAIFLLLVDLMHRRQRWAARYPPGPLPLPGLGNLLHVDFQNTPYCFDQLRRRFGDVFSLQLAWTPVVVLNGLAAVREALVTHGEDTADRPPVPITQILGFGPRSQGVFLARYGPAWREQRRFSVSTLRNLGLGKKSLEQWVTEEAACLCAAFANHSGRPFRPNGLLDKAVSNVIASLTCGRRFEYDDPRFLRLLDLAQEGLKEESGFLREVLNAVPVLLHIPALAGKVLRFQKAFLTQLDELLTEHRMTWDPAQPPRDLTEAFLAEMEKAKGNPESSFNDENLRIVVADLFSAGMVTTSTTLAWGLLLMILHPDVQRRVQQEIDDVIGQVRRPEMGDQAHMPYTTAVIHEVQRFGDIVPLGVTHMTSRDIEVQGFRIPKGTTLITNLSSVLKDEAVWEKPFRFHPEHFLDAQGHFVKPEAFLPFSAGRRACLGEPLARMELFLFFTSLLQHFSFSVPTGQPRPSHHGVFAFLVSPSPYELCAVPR

On to `N#Cc1ccc(N2N=C3c4ccc(C(=O)N5CCC(O)CC5)nc4CC[C@@H]3[C@@H]2C2CCCC2)cc1Cl` [Ocedurenone, ocedurenone], for which the “percent remaining activity of CYP1A2” value at CYP1A2 [1] (ocedurenone at 200 μM) was 92.9%. For the same compound, the pIC50 at CYP1A2 [1] (read-out: IC50 CYP1A2, recombinant CYP) is under 3.70. Further, at CYP1A2 [1] (recombinant enzyme), the “inhibition category CYP1A2” value is “little or no inhibition”. Also, on CYP2D6 (ocedurenone at 200 μM), the “percent remaining activity of CYP2D6” value stood at 87.8%. Besides, the pIC50 at CYP2D6 (read-out: IC50 CYP2D6, recombinant CYP) was under 3.70. Moreover, the “inhibition category CYP2D6” value at CYP2D6 (recombinant enzyme) is listed as “little or no inhibition”. Moreover, on OATP1B3, the “maximum inhibition of OATP1B3-mediated probe substrate accumulation” value is 58%. Besides, the “interaction with human OCT2 transporter (inhibition)” value on OCT2 was “No interaction”. In addition, the “Substrate, OATP1B1 UPT” value at OATP1B1 is “not likely to be a substrate”. Further, the “Maximum fold accumulation, OATP1B1 UPT” value on OATP1B1 (transporter-expressing vs control cells, 0.04–40 µm) turned out to be 1.0. Further, in data set [2] (setting [5]), the “geometric least squares mean ratio (test:reference) and 90% CI, AUC0-inf” value is reported as 199.5 (182.3, 218.3); the “geometric least squares mean ratio (test:reference) and 90% CI, AUClast” value is on record as 161.0 (152.3, 170.3); the “geometric least squares mean ratio (test:reference) and 90% CI, Cmax” value is reported as 107.4 (103.2, 111.8). Moreover, in data set [2] (setting [6]), the “geometric least squares mean ratio (test:reference) and 90% CI, AUC0-inf” value is recorded as 17.2 (16.2, 18.2); the “geometric least squares mean ratio (test:reference) and 90% CI, AUClast” value is recorded as 17.5 (16.6, 18.5); the “geometric least squares mean ratio (test:reference) and 90% CI, Cmax” value is 73.4 (69.5, 77.5). Further, in data set [2] (strong CYP3A4 inducer rifampin), the “effect of rifampin on ocedurenone pharmacokinetics (interaction class)” value is reported as “strong (> 5-fold)”. In addition, in data set [2] (strong CYP3A inhibitor itraconazole), the “effect of itraconazole on ocedurenone exposure (interaction class)” value was “weak (1.25- to 2-fold)”. Also, the “percent CYP1A2 induction (of positive control)” value in the data set with CYP1A2 [3] is given as “lower than 40%”. In data set [4], the “safety and tolerability, single ascending dose” value was “safe and well-tolerated”.

The values above are taken from article PMC10322960 (European Journal of Drug Metabolism and Pharmacokinetics, 2023).
